Laboratory results from patent US6482802B1 (Endowment for Research in Human Biology, Inc., priority 1998, dated 2002).
Values joined by “and” are separate entries in the source; they are usually repeats but may differ in a detail not shown here. Equal values may be shown once.

Columns and labels:
[1] = system: HUVE cells; assay: bFGF-induced proliferation of HUVE cells, aminoglycoside antibiotics; type: cell-based, human; conditions: aminoglycoside 100 μM
Method: (§1) HUVE cells were seeded at 4×10^3 cells/cm^2 in attachment factor (Cell Systems Corp.)-coated 35 mm dishes in HE-SFM, and incubated with 1 μg/ml angiogenin in the presence or absence of inhibitors at 37° C. for 48 hr. Cell were detached by trypsinization and cell numbers were determined with a Coulter counter.
The ability of the other members of the aminoglycoside antibiotic family to inhibit bFGF-induced proliferation of HUVE cells was examined in a similar manner as for angiogenin as described in Section 6.1.1.5, above. HUVE cells, passage 9, were seeded on attachment-factor coated dishes at 50,000 cells per 35 mm dish in HE-SFM. Aminoglycoside antibiotics were added and the cells were incubated with or without […] at 37° C. for 48 hr.

[2] = system: PC-3 human prostate tumor cells
Text: Mice were examined daily by palpation for the first sign of tumor appearance at which time tumor size was estimated twice weekly by caliper measurements (longest perpendicular length and width).

[3] = system: chorioallantoic membrane (CAM) of chick embryos; assay: CAM assay, neomycin alone without angiogenic factor; type: in vivo
Method: (§2) Angiogenesis was measured on the CAM by the method of Knighton et al. (Knighton et al., 1977, Br. J. Cancer 35:347-356) essentially as described (Fett et al., 1985, Biochemistry 24:5480-5486). Fertilized chicken eggs were kept at 18° C. for 2 days and then incubated in a humidified environment at 37° C. for 3 days. Albumin was aspirated from the embryos and after 24 hours, a “window” was cut through the shell and covered with clear tape. […] After 48-68 hours at 37° C., the growth of blood vessels was observed microscopically and recorded as either positive or negative. A positive response (i.e., an angiogenic response) has a typical “spokewheel” appearance.

[4] = system: chorioallantoic membrane (CAM) of chick embryos; assay: CAM assay, aFGF-induced angiogenesis; type: in vivo; conditions: for % Positive: aFGF alone 73, water 21
Method: as §2

[5] = system: HUVE cells; assay: HUVE cell number with neomycin alone, no angiogenic factor; type: cell-based, human; conditions: 48 hrs, 0 μM: 31400 ± 400
Method: (§3) The cells were incubated at 37° C. under humidified air containing 5% CO2 for 48 hrs. […] Cell numbers were determined with a Coulter counter.

[6] = system: HUVE cells; assay: bFGF-induced proliferation of HUVE cells (neomycin dose series); type: cell-based, human; conditions: for bFGF Cell No.: bFGF 10 ng/ml, 48 hrs, 0 μM: 59600 ± 2600
Method: as §3

[7] = system: MDA-MB-435 human breast tumor cells; type: in vivo
Method: MDA-MA-435 human breast tumor cells, which are estrogen receptor negative, were injected directly into the mammary fat pad of athymic mice. Age-matched athymic female mice were assigned to treatment groups of 8 mice each and anesthetized with ketamine (212 mg/kg body weight) and xylazine (21.2 mg/kg body weight) given intraperitoneally and allowed to stabilize under anesthesia for 15 min. A heating pad was used to maintain their body temperature throughout the procedure to minimize stress. Betadine followed by 70% alcohol was swabbed onto the skin of the left lateral thorax. An incision of 6 mm in length was made through the skin in the area of the left lateral thorax behind the left front leg and the mammary fat pad was exposed by using gentle pressure with two fingers to separate the skin at the incision site. MDA-MB-435 human breast tumor cells were harvested by trypsinization, washed in HBSS, counted using trypan blue exclusion to determine cell viability, and 10,000 cells in a total volume of 20 μl were injected into the fat pad using a 27 gauge needle. The incision was closed with 2 drops of Vetbond veterinarian tissue adhesive and the mouse was allowed to recover on the heating pad before returning to its cage. […] Mice were examined daily for tumor growth by gentle palpation of the lateral left thorax in the general area of the injection.

[8] = system: chorioallantoic membrane (CAM) of chick embryos; assay: CAM assay, EGF-induced angiogenesis; type: in vivo; conditions: for % Positive: EGF alone 69, water 21
Method: as §2

[9] = system: chorioallantoic membrane (CAM) of chick embryos; assay: CAM assay, bFGF-induced angiogenesis; type: in vivo; conditions: for % Positive: bFGF alone 78, water 21
Method: as §2

[10] = system: chorioallantoic membrane (CAM) of chick embryos; assay: CAM assay, angiogenin-induced angiogenesis; type: in vivo; conditions: for % Positive (angiogenic response): angiogenin alone 55, water 20
Method: as §2

[11] = system: nuclear translocation of 125I-angiogenin in HUVE cells; assay: Nuclear translocation of 125I-angiogenin in HUVE cells
[12] = system: HUVE cells; assay: EGF-induced proliferation of HUVE cells; type: cell-based, human; conditions: for EGF Cell No.: EGF 5 ng/ml, 48 hrs, 0 μM 5300 ± 300
Method: as §3

[13] = system: HUVE cells; assay: Angiogenin-induced proliferation of HUVE cells; type: cell-based, human
Method: as §1

neomycin
% Inhibition of bFGF-induced cell proliferation ([1]; bFGF 10 ng/ml): 71% | bFGF (10 ng/ml) Cell Numbers ([1]; bFGF 10 ng/ml, 48 hr, control 99000 ± 1000): 68400 ± 800 | Control (cell number without bFGF) ([1]; no bFGF, 48 hr, control 61300 ± 500): 58000 ± 1500 | mice in which appearance of PC-3 tumors was prevented ([2]; 20 mg/kg body weight s.c., 6 times per week 20 days, then 4 times per week 30 days, 6 mice): 50% | tumor status of treated mice by day 18 ([2]; 20 mg/kg s.c., control 2 of 6 with tumor): all of the mice in the neomycin-treated group remained tumor-free | animals that had developed tumors as of day 42 ([2]; 20 mg/kg s.c., control 100%): 50% | induction of angiogenesis by neomycin itself ([3]; about 5 to about 50 μM (20 to 200 ng in 5 μl)): does not induce angiogenesis | Positive eggs ([3]; neomycin 20 ng alone, 50 total eggs): 10 | % Positive ([3]; neomycin 20 ng alone, water 20-21): 20% | Positive eggs ([3]; neomycin 200 ng alone, 29 total eggs): 6 | % Positive ([3]; neomycin 200 ng alone, water 20-21): 21% | Positive eggs ([3]; neomycin 1000 ng alone, 13 total eggs): 3 | % Positive ([3]; neomycin 1000 ng alone, water 21): 23% | % Inhibition of angiogenic activity ([4]; aFGF 10 ng + neomycin 20 ng): 71% | Positive eggs ([4]; aFGF 10 ng + neomycin 20 ng, 14 total eggs): 5 | % Positive ([4]; aFGF 10 ng + neomycin 20 ng): 36% | % Inhibition of angiogenic activity ([4]; aFGF 10 ng + neomycin 200 ng): 75% | Positive eggs ([4]; aFGF 10 ng + neomycin 200 ng, 47 total eggs): 16 | % Positive ([4]; aFGF 10 ng + neomycin 200 ng): 32% and 34% | dosage that inhibited aFGF-induced angiogenesis ([4]; in vivo): about 200 ng per embryo | Control Cell No. ([5]; neomycin 25 μM): 29800 ± 300 | Control Cell No. ([5]; neomycin 50 μM): 28800 ± 1000 | Control Cell No. ([5]; neomycin 100 μM): 27900 ± 500 | Control Cell No. ([5]; neomycin 150 μM): 27400 ± 200 | Control Cell No. ([5]; neomycin 200 μM): 26300 ± 400 | bFGF Inhib. % of cell proliferation ([6]; neomycin 25 μM): 19% | bFGF Cell No. ([6]; neomycin 25 μM): 51500 ± 700 | bFGF Inhib. % of cell proliferation ([6]; neomycin 50 μM): 34% | bFGF Cell No. ([6]; neomycin 50 μM): 45900 ± 1200 | bFGF Inhib. % of cell proliferation ([6]; neomycin 100 μM): 41% | bFGF Cell No. ([6]; neomycin 100 μM): 42600 ± 200 | bFGF Inhib. % of cell proliferation ([6]; neomycin 150 μM): 49% | bFGF Cell No. ([6]; neomycin 150 μM): 39900 ± 125 | bFGF Inhib. % of cell proliferation ([6]; neomycin 200 μM): 64% | bFGF Cell No. ([6]; neomycin 200 μM): 34600 ± 400 | IC50 ([6]; read-out: IC50, bFGF-induced proliferation of endothelial cells): ~100 µM | establishment of MDA-MB-435 human breast tumors ([7]; 60 mg/kg body weight i.p., daily 20 days, then 4 times per week 42 days, 8 mice): completely inhibited the establishment | mice with tumors by day 56 ([7]; 60 mg/kg i.p., all 8 control mice developed tumors): none of the mice had tumors | % Inhibition of angiogenic activity ([8]; EGF 10 ng + neomycin 20 ng): 19% | Positive eggs ([8]; EGF 10 ng + neomycin 20 ng, 15 total eggs): 9 | % Positive ([8]; EGF 10 ng + neomycin 20 ng): 60% | % Inhibition of angiogenic activity ([8]; EGF 10 ng + neomycin 200 ng): 81% | Positive eggs ([8]; EGF 10 ng + neomycin 200 ng, 30 total eggs): 9 | % Positive ([8]; EGF 10 ng + neomycin 200 ng): 30% | dosage that inhibited EGF-induced angiogenesis ([8]; in vivo): about 200 ng per embryo | % Inhibition of angiogenic activity ([9]; bFGF 10 ng + neomycin 20 ng): 58% | Positive eggs ([9]; bFGF 10 ng + neomycin 20 ng, 33 total eggs): 15 | % Positive ([9]; bFGF 10 ng + neomycin 20 ng): 45% | % Inhibition of angiogenic activity ([9]; bFGF 10 ng + neomycin 200 ng): 81% | Positive eggs ([9]; bFGF 10 ng + neomycin 200 ng, 38 total eggs): 12 | % Positive ([9]; bFGF 10 ng + neomycin 200 ng): 34% and 32% | dosage that inhibited bFGF-induced angiogenesis ([9]; in vivo): about 200 ng per embryo | dose that abolishes the angiogenic activity of angiogenin ([10]; angiogenin 10 ng): 20 ng per egg | % Positive (angiogenic response) ([10]; angiogenin 10 ng + neomycin 4 ng): 40% | % Positive (angiogenic response) ([10]; angiogenin 10 ng + neomycin 20 ng): 20% | % Positive (angiogenic response) ([10]; angiogenin 10 ng + neomycin 200 ng): 25% | % inhibition of nuclear translocation of angiogenin ([11]; inhibitor 10 μM, 125I-angiogenin 1 μg/ml 30 min): 42% | Nuclear 125I-angiogenin ([11]; inhibitor 100 μM, 37° C. 30 min, 125I-angiogenin 1 μg/ml 30 min, control 3090 ± 260): 1230 ± 60 cpm | 125I-angiogenin accumulated in the nucleus, % of control ([11]; neomycin 500 μM): 14% | Nuclear accumulated 125I-angiogenin ([11]; neomycin 500 μM, control 3090±260): 420±100 cpm | IC50 ([11]; read-out: IC50, angiogenin nuclear translocation, HUVE cells): ~50 µM | EGF Inhib. % of cell proliferation ([12]; neomycin 25 μM): 17% | EGF Cell No. ([12]; neomycin 25 μM): 46700 ± 600 | EGF Inhib. % of cell proliferation ([12]; neomycin 50 μM): 35% | EGF Cell No. ([12]; neomycin 50 μM): 41700 ± 600 | EGF Inhib. % of cell proliferation ([12]; neomycin 100 μM): 59% | EGF Cell No. ([12]; neomycin 100 μM): 35700 ± 1100 | EGF Inhib. % of cell proliferation ([12]; neomycin 150 μM): 71% | EGF Cell No. ([12]; neomycin 150 μM): 32800 ± 200 | EGF Inhib. % of cell proliferation ([12]; neomycin 200 μM): 100% | EGF Cell No. ([12]; neomycin 200 μM): 26000 ± 900 | IC50 ([12]; read-out: IC50, EGF-induced proliferation of endothelial cells): ~100 µM | IC50 ([13]; HUVE cells, angiogenin 1 μg/ml, 48 hr, read-out: IC50, angiogenin-induced EC proliferation): ~10 µM and < 10 µM | Cell number ([13]; aminoglycoside 100 μM, with angiogenin 1 μg/ml, none: 62,500 ± 100): 53,400 ± 1,900 | Cell number ([13]; aminoglycoside 100 μM, without angiogenin, none: 52,000 ± 100): 52,700 ± 700 | percent of cell number in the presence of 1 μg/ml angiogenin relative to the corresponding control ([13]; aminoglycoside 100 μM, none: 120): 101% | inhibition of proliferative activity of angiogenin ([13]; neomycin 5 μM, angiogenin 1 μg/ml, 48 hr): 49% | inhibition of angiogenin-induced cell proliferation ([13]; neomycin 25 μM, angiogenin 1 μg/ml, 48 hr): 69% | angiogenin-induced cell proliferation ([13]; neomycin 50 μM, angiogenin 1 μg/ml, 48 hr): completely abolished | effect of neomycin alone on cell proliferation ([13]; no angiogenin, 48 hr): neither induced nor inhibited cell proliferation
